From patent publication US8778951B2, “Heteroaryl compounds and their uses” (Novartis AG, priority 2009, dated 2014)
pIC50: −log10 of the molar value.

Test system: neointima formation
Assay: not given
Conditions: rats; cited from earlier work

Structure (SMILES) | inhibition of neointima formation
COc1ccc(CNc2nc(N(CCO)CCO)nc3c2ncn3C(C)C)cc1 [CVT-313] | greater than 80%

Target: Cdk9/cyclinT1 (Homo sapiens (Human), UniProt P50750)
Assay: Cdk9/CyclinT1 IMAP Protocol (fluorescence polarization kinase assay)
Assay type: biochemical
Conditions: Table 2; generated using one of the two Cdk9/cyclinT1 assays (IMAP or Alpha Screen), not specified which; unit inferred
Summary of the method: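 Reaction used 4 nM Cdk9/cyclinT1, 100 nM 5TAMRA-cdk7tide peptide and 6 uM ATP in 100 mM Tris pH 7.2 with MgCl2, 0.01% Tween-20, 1 mM DTT and 2.5% DMSO, running 4.5 h. Phosphopeptide was captured by IMAP binding reagent for >1 h, then read by fluorescence polarization (ex 531/em 595 nm).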

Chain of Cdk9/cyclinT1 (P50750 whole entry): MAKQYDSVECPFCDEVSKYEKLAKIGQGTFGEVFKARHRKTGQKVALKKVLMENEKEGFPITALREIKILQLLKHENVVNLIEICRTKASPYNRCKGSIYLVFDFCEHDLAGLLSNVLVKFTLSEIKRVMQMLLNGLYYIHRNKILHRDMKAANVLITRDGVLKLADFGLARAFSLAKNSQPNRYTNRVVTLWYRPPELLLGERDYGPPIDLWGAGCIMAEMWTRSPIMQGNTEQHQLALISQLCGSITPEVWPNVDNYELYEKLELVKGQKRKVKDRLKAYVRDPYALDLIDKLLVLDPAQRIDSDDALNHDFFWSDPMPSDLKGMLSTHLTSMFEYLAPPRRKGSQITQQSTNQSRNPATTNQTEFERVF
Chain of Cdk9/cyclinT1 (O60563 whole entry partner): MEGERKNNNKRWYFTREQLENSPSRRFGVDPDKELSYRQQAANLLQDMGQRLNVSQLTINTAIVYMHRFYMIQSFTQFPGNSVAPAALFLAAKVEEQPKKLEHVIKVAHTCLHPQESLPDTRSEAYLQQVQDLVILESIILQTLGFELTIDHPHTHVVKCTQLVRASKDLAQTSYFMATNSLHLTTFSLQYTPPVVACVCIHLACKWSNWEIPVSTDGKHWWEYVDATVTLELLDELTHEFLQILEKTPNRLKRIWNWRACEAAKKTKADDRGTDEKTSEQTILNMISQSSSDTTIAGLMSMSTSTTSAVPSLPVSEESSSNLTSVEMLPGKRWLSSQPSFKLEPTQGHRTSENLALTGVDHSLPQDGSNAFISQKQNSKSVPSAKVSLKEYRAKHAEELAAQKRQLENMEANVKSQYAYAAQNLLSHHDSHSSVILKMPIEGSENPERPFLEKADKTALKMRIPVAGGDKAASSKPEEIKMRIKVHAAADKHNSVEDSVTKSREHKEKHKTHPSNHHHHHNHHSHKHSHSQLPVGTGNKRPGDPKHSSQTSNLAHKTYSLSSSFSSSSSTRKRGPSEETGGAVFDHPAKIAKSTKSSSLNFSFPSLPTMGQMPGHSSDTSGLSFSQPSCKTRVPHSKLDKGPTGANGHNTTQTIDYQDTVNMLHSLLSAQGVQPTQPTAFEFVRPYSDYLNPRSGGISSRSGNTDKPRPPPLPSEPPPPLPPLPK

Structure (SMILES) | pIC50
O[C@H]1CC[C@H](Nc2cc(-c3cccc(NCC4CCCOC4)n3)c(Cl)cn2)CC1 (some centres unmarked) [Compound 128] | 7.48
Fc1cncc(CNc2cccc(-c3cc(NC4CCNCC4)ncc3Cl)n2)c1 [Compound 70] | 6.76
Fc1ccc(CNc2cccc(-c3cc(N[C@@H]4CCCNC4)ncc3Cl)n2)cc1F [Compound 94] | 6.29
N[C@H]1CC[C@H](Nc2cc(-c3cccc(NCc4ccc(OC(F)F)cc4)n3)c(Cl)cn2)CC1 [Compound 53] | 7.95
NCCCNc1cc(-c2cccc(NCc3cccc(F)c3)n2)c(Cl)cn1 [Compound 144] | 7.80
NCCCNc1cccc(-c2cc(N[C@H]3CC[C@H](O)CC3)ncc2Cl)n1 [Compound 118] | 6.86
NC[C@H]1CC[C@H](Nc2cc(-c3cccc(NCc4ccncc4)n3)c(Cl)cn2)CC1 [Compound 60] | 8.10
CCN[C@H]1CC[C@H](Nc2cc(-c3cccc(NCc4cccc(F)c4)n3)c(Cl)cn2)CC1 [Compound 88] | 7.96
N[C@H]1CCCC[C@H]1Nc1cc(-c2cccc(NCc3cccc(F)c3)n2)c(Cl)cn1 [Compound 153] | 5.81
N[C@H]1CC[C@H](Nc2cc(-c3cccc(NCc4cc(F)cc(F)c4)n3)c(Cl)cn2)CC1 [Compound 29] | 8.10
NC[C@H]1CC[C@H](Nc2cc(-c3cccc(NCc4cc(F)ccc4F)n3)c(Cl)cn2)CC1 [Compound 61] | 7.74
N[C@H]1CC[C@H](Nc2cc(-c3cccc(NCc4cccc(O)c4)n3)c(Cl)cn2)CC1 [Compound 49] | 7.84
N[C@H]1CC[C@H](Nc2cc(-c3cccc(NCC4CCCCC4)n3)c(Cl)cn2)CC1 [Compound 24] | 7.91
N[C@H]1CC[C@H](Nc2cc(-c3cccc(NCc4cncc(F)c4)n3)c(Cl)cn2)CC1 [Compound 38] | 8.10
Fc1cccc(CNc2cccc(-c3cc(NC4CCC(F)(F)CC4)ncc3Cl)n2)c1 [Compound 149] | 6.29
Clc1cnc(NC2CCNCC2)cc1-c1cccc(NCc2ccncc2)n1 [Compound 72] | 6.94
Fc1cccc(CNc2cccc(-c3cc(N[C@H]4CCCOC4)ncc3Cl)n2)c1 [Compound 150] | 5.19
Fc1cccc(CNc2cccc(-c3cc(NCCN4CCOCC4)ncc3Cl)n2)c1 [Compound 171] | 6.66
CN1CCN(CCNc2cc(-c3cccc(NCc4cccc(F)c4)n3)c(Cl)cn2)CC1 [Compound 170] | 7.36
N[C@H]1CC[C@H](Nc2cc(-c3cccc(NCc4ccc(OC(F)(F)F)cc4)n3)c(Cl)cn2)CC1 [Compound 54] | 7.64
Clc1cccc(CNc2cccc(-c3cc(NC4CCNCC4)ncc3Cl)n2)c1 [Compound 73] | 7.45
O=C(c1cccnc1)N1CCC(Nc2cc(-c3cccc(NCc4cccc(F)c4)n3)c(Cl)cn2)CC1 [Compound 87] | 7.16
NCCNc1cc(-c2cccc(NCc3cccc(F)c3)n2)c(Cl)cn1 [Compound 159] | 5.86
O[C@H]1CC[C@H](Nc2cc(-c3cccc(NC4CCNCC4)n3)c(Cl)cn2)CC1 [Compound 8, trans-4-(5′-chloro-6-(piperidin-4-yl-amino)-2,4′-bipyridin-2′-yl-amino)cyclohexanol] | 7.07
NC[C@H]1CC[C@H](Nc2cc(-c3cccc(NCc4ccccc4)n3)c(Cl)cn2)CC1 [Compound 57] | 7.49
NC(=O)c1ccc(-c2cc(N[C@H]3CC[C@H](N)CC3)ncc2Cl)nc1NCc1cccc(F)c1 [Compound 138] | 6.28

The next lines start with the values.

pIC50 | Structure (SMILES)
8.10 | CC1(C)C[C@H](CNc2cccc(-c3cc(N[C@H]4CC[C@H](N)CC4)ncc3Cl)n2)CCO1 (single isomer, unassigned) [Compound 256]
8.40 | CC(CS(C)(=O)=O)N[C@H]1CC[C@H](Nc2cc(-c3ccc(F)c(NCC4CCOCC4)n3)c(Cl)cn2)CC1 (some centres unmarked) [Compound 319]
7.68 | Cc1cnc(N[C@H]2CC[C@H](N)CC2)cc1-c1cccc(NCc2cccc(F)c2)n1 [Compound 211, N2′-(trans-4-aminocyclohexyl)-N6-(3-fluorobenzyl)-5′-methyl-2,4′-bipyridine-2′,6-diamine]
7.79 | Clc1cnc(N[C@H]2CC[C@H](NC3CCOC3)CC2)cc1-c1nc(NCC2CCOCC2)ccc1Cl (mixture of isomers) [Compound 280, 3,5′-dichloro-N6-((tetrahydro-2H-pyran-4-yl)methyl)-N2′-(trans-4-(tetrahydrofuran-3-yl-amino)cyclohexyl)-2,4′-bipyridine-2′,6-diamine]
9.00 | CC1(CNc2nc(-c3cc(N[C@H]4CC[C@H](NC5CCS(=O)(=O)CC5)CC4)ncc3Cl)ccc2F)CCOCC1 [Compound 346]
9.00 | CCN(CC)[C@H]1CC[C@H](Nc2cc(-c3cccc(NCC4(C#N)CCOCC4)n3)c(Cl)cn2)CC1 [Compound 366, 4-((5′-chloro-2′-((1r,4r)-4-(diethylamino)cyclohexylamino)-2,4′-bipyridin-6-ylamino)methyl)tetrahydro-2H-pyran-4-carbonitrile]
7.45 | NCC(O)CNc1cc(-c2cccc(NCc3cccc(F)c3)n2)c(Cl)cn1 (centres unmarked) [Compound 195]
9.00 | CC1(C)CC(CNc2ccc(Cl)c(-c3cc(N[C@H]4CC[C@H](O)CC4)ncc3Cl)n2)CCO1 (stereo partly drawn) [Compound 297, trans-4-(3,5′-dichloro-6-((2,2-dimethyltetrahydro-2H-pyran-4-yl)methyl)amino-2,4′-bipyridin-2′-yl-amino)cyclohexanol]
9.59 | N[C@H]1CC[C@H](Nc2cc(-c3nc(NCC4CCOCC4)c(F)cc3F)c(Cl)cn2)CC1 [Compound 318]
9.00 | COC[C@@H](C)N[C@H]1CC[C@H](Nc2cc(-c3nc(NC[C@@H]4CCCOC4)ccc3Cl)c(Cl)cn2)CC1 [Compound 323, 3,5′-dichloro-N2′-(trans-4-((R)-1-methoxypropan-2-yl-amino)cyclohexyl)-N6-(((S)-tetrahydro-2H-pyran-3-yl)methyl)-2,4′-bipyridine-2′,6-diamine]
8.10 | NCCCCNc1cc(-c2cccc(NCc3cc(F)cc(F)c3)n2)c(Cl)cn1 [Compound 188]
8.51 | COC[C@@H](C)N[C@H]1CC[C@H](Nc2cc(-c3ccc(F)c(NCC(CO)CO)n3)c(Cl)cn2)CC1 [Compound 367, 2-((5′-chloro-5-fluoro-2′-((1R,4r)-4-((R)-1-methoxypropan-2-ylamino)cyclohexylamino)-2,4′-bipyridin-6-ylamino)methyl)propane-1,3-diol]
7.42 | COCCN[C@H]1CC[C@H](Nc2cc(-c3nc(NCC4CCOCC4)ccc3Cl)ccn2)CC1 [Compound 274]
9.00 | COC[C@@H](C)N[C@H]1CC[C@H](Nc2cc(-c3nc(NC[C@H]4CCCOC4)ccc3Cl)c(Cl)cn2)CC1 [Compound 327, 3,5′-dichloro-N2′-(trans-4-((R)-1-methoxypropan-2-yl-amino)cyclohexyl)-N6-(((R)-tetrahydro-2H-pyran-3-yl)methyl)-2,4′-bipyridine-2′,6-diamine]
8.70 | O=S1(=O)CCC(N[C@H]2CC[C@H](Nc3cc(-c4nc(NCC5CCOCC5)ccc4Cl)c(Cl)cn3)CC2)CC1 [Compound 348, 3,5′-dichloro-N6-((tetrahydro-2H-pyran-4-yl)methyl)-N2′-(trans-4-(1,1-dioxo-tetrahydro-2H-thiopyran-4-ylamino)cyclohexyl)-2,4′-bipyridine-2′,6-diamine]
6.89 | CC(=O)N1CCC[C@@H](CNc2cccc(-c3ccnc(N[C@H]4CC[C@H](N)CC4)c3)n2)C1 [Compound 218]
7.55 | CN(CC1CCOCC1)c1cncc(-c2cc(N[C@H]3CC[C@H](O)CC3)ncc2Cl)n1 [Compound 250]
9.00 | COC[C@@H](C)N[C@H]1CC[C@H](Nc2cc(-c3ccc(C(F)(F)F)c(NCC4CCOCC4)n3)c(Cl)cn2)CC1 [Compound 308]
8.10 | Clc1cnc(N[C@H]2CC[C@H](N3CCCC3)CC2)cc1-c1cnc(Cl)c(NCC2CCOCC2)n1 [Compound 225, 3-chloro-6-(5-chloro-2-(trans-4-(pyrrolidin-1-yl)cyclohexylamino)pyridin-4-yl)-N-((tetrahydro-2H-pyran-4-yl)methyl)pyrazin-2-amine]
8.10 | OCCCCNc1cc(-c2cccc(NCc3cccc(F)c3)n2)c(Cl)cn1 [Compound 186]
